Key:
Assay in all cases: KINOMEscan competition binding
BRK = BRK (Homo sapiens, UniProt Q13882); conditions: read-out: %Inh BRK
CSK = CSK (Homo sapiens, UniProt P41240); conditions: read-out: %Inh CSK
DAPK2 = DAPK2 (Homo sapiens, UniProt Q9UIK4); conditions: read-out: %Inh DAPK2
DDR2 = target: T1, DDR2 (Homo sapiens, UniProt Q16832); conditions: read-out: %Inh DDR2
T1 sequence (Q16832 22-855): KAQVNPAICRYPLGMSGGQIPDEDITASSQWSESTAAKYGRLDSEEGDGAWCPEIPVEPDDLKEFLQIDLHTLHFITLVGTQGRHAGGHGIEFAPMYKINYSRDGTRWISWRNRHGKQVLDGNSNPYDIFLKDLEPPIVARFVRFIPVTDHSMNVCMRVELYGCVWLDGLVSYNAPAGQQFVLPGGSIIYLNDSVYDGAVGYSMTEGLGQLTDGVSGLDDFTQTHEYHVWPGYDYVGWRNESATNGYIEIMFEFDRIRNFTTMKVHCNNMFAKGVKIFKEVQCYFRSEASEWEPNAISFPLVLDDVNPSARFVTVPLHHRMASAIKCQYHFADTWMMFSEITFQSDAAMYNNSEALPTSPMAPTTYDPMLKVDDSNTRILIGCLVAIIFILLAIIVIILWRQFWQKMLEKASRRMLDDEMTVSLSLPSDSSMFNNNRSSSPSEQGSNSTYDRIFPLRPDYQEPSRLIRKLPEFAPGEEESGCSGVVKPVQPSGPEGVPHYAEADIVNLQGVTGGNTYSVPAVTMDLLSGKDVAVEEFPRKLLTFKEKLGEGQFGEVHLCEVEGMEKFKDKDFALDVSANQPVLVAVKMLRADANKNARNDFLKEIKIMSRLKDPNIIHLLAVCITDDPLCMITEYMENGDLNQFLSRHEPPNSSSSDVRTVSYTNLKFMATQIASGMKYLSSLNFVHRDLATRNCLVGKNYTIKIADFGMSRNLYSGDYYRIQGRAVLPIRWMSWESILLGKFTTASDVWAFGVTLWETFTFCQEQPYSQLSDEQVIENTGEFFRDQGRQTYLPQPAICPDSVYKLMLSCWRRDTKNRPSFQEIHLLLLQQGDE

DYRK2 = target: T2, DYRK2 (Homo sapiens, UniProt Q92630); conditions: read-out: %Inh DYRK2
T2 sequence (Q92630 1-601): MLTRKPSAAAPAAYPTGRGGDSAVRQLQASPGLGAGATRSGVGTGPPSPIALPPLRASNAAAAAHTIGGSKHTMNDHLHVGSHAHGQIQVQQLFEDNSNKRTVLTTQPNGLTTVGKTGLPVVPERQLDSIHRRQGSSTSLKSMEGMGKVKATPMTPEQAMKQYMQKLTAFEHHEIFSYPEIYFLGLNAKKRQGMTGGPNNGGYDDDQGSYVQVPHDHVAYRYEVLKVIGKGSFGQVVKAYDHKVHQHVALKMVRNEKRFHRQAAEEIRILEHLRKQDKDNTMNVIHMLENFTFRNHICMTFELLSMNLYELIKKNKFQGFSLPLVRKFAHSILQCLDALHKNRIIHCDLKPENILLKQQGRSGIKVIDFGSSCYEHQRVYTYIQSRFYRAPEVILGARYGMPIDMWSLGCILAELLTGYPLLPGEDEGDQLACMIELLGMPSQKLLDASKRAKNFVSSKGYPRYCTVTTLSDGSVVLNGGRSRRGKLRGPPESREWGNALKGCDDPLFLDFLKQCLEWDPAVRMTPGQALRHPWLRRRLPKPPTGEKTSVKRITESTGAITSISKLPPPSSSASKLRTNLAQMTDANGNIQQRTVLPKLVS

EPHA7 = EPHA7 (Homo sapiens, UniProt Q15375); conditions: read-out: %Inh EPHA7
ERK5 = ERK5 (Homo sapiens, UniProt Q13164); conditions: read-out: %Inh ERK5
FLT3-autoinhibited = target: T3, FLT3-autoinhibited (Homo sapiens, UniProt P36888); conditions: read-out: %Inh FLT3-autoinhibited
T3 sequence (P36888 27-993): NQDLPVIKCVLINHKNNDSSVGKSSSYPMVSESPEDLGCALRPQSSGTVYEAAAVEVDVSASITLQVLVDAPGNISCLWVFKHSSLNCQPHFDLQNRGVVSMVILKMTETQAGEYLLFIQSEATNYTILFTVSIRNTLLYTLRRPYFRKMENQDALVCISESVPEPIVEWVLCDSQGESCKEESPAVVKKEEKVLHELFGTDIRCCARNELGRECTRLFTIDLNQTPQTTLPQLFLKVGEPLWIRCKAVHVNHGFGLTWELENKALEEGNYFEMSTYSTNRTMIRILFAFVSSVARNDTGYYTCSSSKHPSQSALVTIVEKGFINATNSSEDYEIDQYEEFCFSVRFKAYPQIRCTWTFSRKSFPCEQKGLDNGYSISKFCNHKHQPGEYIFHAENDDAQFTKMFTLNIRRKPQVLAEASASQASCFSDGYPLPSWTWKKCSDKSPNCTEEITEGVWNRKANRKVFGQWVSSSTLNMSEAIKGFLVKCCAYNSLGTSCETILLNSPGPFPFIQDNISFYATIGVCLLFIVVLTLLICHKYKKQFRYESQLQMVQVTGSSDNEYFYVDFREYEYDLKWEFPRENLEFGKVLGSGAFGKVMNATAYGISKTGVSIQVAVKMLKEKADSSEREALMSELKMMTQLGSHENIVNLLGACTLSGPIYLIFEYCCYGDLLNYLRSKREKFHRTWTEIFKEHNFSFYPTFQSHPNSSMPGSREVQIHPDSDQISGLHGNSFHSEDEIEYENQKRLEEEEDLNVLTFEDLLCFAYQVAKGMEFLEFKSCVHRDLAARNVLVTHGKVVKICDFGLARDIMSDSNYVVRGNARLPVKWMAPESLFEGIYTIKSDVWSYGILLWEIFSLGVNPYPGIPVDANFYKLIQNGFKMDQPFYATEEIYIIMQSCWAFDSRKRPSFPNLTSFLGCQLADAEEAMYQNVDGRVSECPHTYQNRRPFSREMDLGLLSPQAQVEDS

[1] = target: JAK2(JH1domain-catalytic) (Homo sapiens, UniProt O60674); conditions: read-out: %Inh JAK2(JH1domain-catalytic)
Sequence of JAK2(JH1domain-catalytic) (O60674 840-1132 limits assumed): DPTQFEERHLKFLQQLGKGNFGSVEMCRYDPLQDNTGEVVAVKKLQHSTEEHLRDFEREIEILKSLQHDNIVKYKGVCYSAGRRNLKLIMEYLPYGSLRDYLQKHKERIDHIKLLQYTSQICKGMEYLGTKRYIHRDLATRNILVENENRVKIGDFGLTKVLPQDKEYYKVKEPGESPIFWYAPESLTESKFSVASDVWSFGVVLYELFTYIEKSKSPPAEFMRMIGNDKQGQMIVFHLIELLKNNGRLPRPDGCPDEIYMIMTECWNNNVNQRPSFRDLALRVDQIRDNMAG

Sequence of EPHA7 (Q15375 28-998): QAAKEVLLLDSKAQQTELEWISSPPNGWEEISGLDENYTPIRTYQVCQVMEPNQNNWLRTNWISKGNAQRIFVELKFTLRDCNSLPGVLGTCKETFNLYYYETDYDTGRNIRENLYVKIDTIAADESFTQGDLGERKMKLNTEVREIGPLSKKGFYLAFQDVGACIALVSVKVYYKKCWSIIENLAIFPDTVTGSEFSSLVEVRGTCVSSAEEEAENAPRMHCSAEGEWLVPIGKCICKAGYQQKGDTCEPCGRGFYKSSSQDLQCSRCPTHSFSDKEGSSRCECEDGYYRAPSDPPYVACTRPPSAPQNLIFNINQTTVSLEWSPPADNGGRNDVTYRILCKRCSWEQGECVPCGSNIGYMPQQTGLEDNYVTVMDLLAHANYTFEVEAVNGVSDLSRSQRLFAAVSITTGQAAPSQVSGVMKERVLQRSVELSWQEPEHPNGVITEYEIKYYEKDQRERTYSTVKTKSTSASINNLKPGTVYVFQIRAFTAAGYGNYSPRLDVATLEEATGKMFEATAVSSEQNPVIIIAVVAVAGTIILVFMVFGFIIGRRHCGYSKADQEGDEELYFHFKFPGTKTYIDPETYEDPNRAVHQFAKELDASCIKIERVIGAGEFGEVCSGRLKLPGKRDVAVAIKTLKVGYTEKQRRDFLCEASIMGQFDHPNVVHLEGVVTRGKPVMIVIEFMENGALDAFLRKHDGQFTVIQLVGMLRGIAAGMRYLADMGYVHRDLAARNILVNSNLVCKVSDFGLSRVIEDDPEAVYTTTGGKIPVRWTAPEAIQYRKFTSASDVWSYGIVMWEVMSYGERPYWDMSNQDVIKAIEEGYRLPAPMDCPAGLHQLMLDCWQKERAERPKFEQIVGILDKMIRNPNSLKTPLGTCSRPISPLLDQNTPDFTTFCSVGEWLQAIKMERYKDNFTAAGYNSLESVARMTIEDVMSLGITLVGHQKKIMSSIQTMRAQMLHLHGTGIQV
Sequence of CSK (P41240 whole entry): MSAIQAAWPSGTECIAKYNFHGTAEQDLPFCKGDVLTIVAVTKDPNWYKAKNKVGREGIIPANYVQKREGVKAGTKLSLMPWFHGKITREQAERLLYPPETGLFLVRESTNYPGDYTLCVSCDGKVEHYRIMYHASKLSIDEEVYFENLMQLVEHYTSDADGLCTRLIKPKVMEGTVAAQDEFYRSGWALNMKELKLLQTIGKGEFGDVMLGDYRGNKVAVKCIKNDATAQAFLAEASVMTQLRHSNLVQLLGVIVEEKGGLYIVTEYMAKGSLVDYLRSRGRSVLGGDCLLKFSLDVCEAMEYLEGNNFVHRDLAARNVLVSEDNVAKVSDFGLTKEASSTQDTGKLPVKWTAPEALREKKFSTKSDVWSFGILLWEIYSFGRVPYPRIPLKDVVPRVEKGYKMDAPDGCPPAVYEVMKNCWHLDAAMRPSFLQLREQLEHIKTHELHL
Sequence of DAPK2 (Q9UIK4 whole entry): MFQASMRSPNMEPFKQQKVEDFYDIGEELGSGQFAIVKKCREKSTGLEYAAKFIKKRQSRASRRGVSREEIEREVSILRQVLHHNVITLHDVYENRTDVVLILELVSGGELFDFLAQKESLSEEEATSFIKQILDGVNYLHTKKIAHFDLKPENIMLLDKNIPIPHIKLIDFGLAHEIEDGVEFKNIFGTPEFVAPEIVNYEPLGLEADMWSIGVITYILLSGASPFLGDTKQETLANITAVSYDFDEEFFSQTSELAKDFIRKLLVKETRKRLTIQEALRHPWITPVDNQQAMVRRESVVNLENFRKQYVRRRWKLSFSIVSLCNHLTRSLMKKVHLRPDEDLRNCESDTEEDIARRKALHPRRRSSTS
Sequence of ERK5 (Q13164 whole entry): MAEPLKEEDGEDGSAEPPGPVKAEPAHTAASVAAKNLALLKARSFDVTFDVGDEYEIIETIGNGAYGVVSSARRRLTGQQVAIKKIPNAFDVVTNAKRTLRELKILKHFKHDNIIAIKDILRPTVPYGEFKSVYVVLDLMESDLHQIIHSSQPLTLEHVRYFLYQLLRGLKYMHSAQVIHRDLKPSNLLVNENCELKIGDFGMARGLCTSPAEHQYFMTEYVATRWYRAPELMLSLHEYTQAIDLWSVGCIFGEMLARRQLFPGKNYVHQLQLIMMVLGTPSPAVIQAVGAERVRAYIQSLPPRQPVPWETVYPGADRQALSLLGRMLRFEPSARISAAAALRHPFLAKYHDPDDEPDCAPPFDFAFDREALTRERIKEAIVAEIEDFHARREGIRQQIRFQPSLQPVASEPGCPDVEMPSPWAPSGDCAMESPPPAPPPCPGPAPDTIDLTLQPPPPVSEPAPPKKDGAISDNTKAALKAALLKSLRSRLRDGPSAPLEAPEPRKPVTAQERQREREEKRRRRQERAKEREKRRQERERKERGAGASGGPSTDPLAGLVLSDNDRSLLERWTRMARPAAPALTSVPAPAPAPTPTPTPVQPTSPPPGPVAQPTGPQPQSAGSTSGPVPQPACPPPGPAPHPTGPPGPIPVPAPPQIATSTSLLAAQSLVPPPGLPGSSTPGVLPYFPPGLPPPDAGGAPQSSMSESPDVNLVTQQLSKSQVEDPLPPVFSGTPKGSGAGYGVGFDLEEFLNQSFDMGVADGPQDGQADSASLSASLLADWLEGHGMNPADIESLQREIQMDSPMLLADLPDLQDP
Sequence of BRK (Q13882 whole entry): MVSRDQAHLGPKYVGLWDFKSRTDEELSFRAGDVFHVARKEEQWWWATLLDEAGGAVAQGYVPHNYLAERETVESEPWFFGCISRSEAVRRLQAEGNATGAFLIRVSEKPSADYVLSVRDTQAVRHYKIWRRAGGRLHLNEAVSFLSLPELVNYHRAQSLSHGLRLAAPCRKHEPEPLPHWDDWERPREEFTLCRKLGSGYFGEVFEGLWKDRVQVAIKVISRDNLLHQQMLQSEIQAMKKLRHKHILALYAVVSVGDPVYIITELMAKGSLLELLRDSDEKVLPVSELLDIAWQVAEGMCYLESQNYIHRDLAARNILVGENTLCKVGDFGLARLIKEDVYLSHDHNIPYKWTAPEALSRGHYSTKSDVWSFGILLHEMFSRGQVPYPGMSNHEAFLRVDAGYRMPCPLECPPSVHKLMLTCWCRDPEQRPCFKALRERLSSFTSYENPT

Row | SMILES | inhibition at 1 µM (BRK) | inhibition at 1 µM (CSK) | inhibition at 1 µM (DAPK2) | inhibition at 1 µM (DDR2) | inhibition at 1 µM (DYRK2) | inhibition at 1 µM (EPHA7) | inhibition at 1 µM (ERK5) | inhibition at 1 µM (FLT3-autoinhibited) | inhibition at 1 µM [1]
1 | Cn1cc(-c2cnc(N)c3c(-c4ccc5c(c4)CCN5C(=O)Cc4ccccc4)csc23)cn1 [UNC10225012A] | 92.2% | 20% | 21% | 24% | 8% | 6% | 15% | 0% | 26%
2 | O=c1cc(N2CCOCC2)nc2n(Cc3cccc(Cl)c3Cl)c(C3CC3)nn12 [UNC10225469A] | 0% | 8% | 12% | 0% | 1% | 0% | 0% | 0% | 6%
3 | COc1cccc(OC)c1C(=O)Nc1cccc(-c2nn3ccccc3c2-c2ccnc(Nc3cccc(F)c3)n2)c1 [UNC10225310A] | 19% | 18% | 6% | 57% | 0% | 14% | 2% | 0% | 3%
4 | CS(=O)(=O)Cc1ccc(Nc2nccc(-c3c(-c4cccc(NC(=O)C5CCCCC5)c4)nn4ncccc34)n2)cc1 [UNC10225159A] | 2% | 10% | 9% | 54% | 5% | 15% | 0% | 25% | 16%
5 | Cc1ccc(NC(=O)Nc2cccc(C(F)(F)F)c2)cc1 [UNC10225187A] | 0% | 28% | 3% | 65% | 0% | 2% | 5% | 0% | 0%

Source: paper PMC5540273, “Progress towards a public chemogenomic set for protein kinases and a call for contributions” (PLoS ONE, 2017)
